Assay results reported in patent publication US20220031710A1, “USE OF ERK5 INHIBITORS FOR TREATING GLIOMAS IN PEDIATRIC SUBJECTS” (UNIVERSITY OF PITTSBURGH - OF THE COMMONWEALTH SYSTEM OF …, priority 2019, published 2022).
Blank lines part the entries; values can stand above or below the molecule they belong to. Where a SMILES comes first, the peptide text is derived from it. The star is where a group is joined. Cbz = O=C(OCc1ccccc1)*

Tests used:
NSCs = test: Direct Trypan-Blue automated cell count of NSCs treated with EZH2 inhibitor; type: cell-based, human; conditions: GSK343 (504), over 5 days
Description: Direct cell counts were performed using the Countess II FL Automated Cell Counter (ThermoFisher Scientific). Alamar blue viability (ThermoFisher Scientific) and the 5-bromo-2′-deoxyuridine (BrdU) incorporated cell proliferation assay (Cell Signaling Technology Cat #6813) were performed using the manufacturer's standard protocol. EC50 curve analysis was performed using raw fluorescent Alamar blue values that were inputted into PRISM 7.0. Drug concentrations were log 10 transformed and values normalized to percent viability with respect to vehicle treated cells. EC50 values were interpolated from a log inhibitor vs. normalized response with variable slope using a least square fit model.

EZH2 = molecular target: T1, EZH2 (Homo sapiens, UniProt Q15910); test: Western blot of H3K27Me3, RAS activation and p16 in NSCs treated with EZH2 inhibitor; type: cell-based; conditions: GSK343 (504)
T1 construct: endogenous in cells; host or cells: H9 hESC-derived human neural stem cells
Description: RAS activity was measured using the RAS activation assay (Cell Signaling Technology, Cat #8814). Briefly, active Ras Detection GST-RAF1-RBD fusion protein was used to bind the activated form of GTP-bound RAS, which was then immunoprecipitated from 500 μg of total cell lysate with glutathione resin. RAS activation levels were then determined by western blot using a RAS Mouse mAb. Activated RAS immune-precipitate was normalized to total RAS from whole cell lysate.
(§1) Cell pellets were lysed in PLC lysis buffer containing protease and phosphatase inhibitors (Roche Inc.). Protein lysates were quantified using the bicinchoninic acid (BCA) assay (Pierce Chemical Co., Rockford, Ill.). 30 μg of total protein lysate was loaded in 10% SDS-PAGE gels and electrophoresed. Proteins were transferred to PVDF membranes using a semi-dry transfer apparatus (Bio-Rad). Membranes were blocked for one hour and probed for various proteins overnight in 5% non-fat milk or 5% BSA in Tris Buffered Saline Solution, 0.5% Tween-20 (TBST) or Phosphate Buffered Saline Solution with 0.5% Tween-20 (PBST). Membranes were washed for 5 mins in TBST (3×) and incubated with horseradish peroxidase-conjugated antibodies specific for the primary antibody (BioRad Laboratories, Inc., CA, USA). Binding was detected using Chemiluminescence Reagent Plus (PerkinElmer Inc., MA, USA).

MYC = test: Western blot of phospho MYC S62 and total MYC in DIPG cells; type: cell-based, human; conditions: DIPG-IV cells with ERK5 knockdown (Dox); MG132 10 uM
Description: as §1

RASAL1 = test: Western blot of RASAL1 after decitabine treatment; type: cell-based, human; conditions: DIPG-007 and NSC H3K27M cells; 5 days; 1 μM
Description: as §1

T1 sequence (Q15910 whole entry): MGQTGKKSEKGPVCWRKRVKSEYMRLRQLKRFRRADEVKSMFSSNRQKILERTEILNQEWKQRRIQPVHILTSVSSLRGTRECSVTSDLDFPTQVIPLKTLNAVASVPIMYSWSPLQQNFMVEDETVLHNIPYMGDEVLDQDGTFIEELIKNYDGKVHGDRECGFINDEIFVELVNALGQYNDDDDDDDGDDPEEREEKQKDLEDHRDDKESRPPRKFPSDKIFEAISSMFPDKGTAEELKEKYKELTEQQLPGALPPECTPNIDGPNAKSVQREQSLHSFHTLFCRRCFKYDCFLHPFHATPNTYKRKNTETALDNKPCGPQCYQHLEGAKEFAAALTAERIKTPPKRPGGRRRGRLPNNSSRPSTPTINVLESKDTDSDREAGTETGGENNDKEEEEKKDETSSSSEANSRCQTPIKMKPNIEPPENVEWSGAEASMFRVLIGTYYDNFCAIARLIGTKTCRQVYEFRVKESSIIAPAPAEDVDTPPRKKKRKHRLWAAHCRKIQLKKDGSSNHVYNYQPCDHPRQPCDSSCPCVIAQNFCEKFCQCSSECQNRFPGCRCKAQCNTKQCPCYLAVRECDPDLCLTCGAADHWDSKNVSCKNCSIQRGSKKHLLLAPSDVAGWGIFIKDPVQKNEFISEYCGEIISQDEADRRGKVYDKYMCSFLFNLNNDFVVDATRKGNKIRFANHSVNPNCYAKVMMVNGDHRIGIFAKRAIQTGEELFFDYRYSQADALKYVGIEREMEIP
T1 sequence (O75530 whole entry partner): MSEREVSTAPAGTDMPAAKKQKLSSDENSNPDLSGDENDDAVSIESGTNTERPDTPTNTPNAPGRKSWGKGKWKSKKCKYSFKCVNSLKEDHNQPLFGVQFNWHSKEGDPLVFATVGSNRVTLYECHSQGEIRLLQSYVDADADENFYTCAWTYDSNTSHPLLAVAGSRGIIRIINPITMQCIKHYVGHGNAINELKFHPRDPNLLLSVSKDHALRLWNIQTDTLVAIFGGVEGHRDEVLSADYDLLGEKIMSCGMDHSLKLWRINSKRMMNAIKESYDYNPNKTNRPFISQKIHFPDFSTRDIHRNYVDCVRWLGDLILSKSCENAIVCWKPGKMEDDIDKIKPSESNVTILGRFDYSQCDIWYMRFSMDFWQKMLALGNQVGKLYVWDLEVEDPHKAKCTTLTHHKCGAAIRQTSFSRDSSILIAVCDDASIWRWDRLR
T1 sequence (Q15022 whole entry partner): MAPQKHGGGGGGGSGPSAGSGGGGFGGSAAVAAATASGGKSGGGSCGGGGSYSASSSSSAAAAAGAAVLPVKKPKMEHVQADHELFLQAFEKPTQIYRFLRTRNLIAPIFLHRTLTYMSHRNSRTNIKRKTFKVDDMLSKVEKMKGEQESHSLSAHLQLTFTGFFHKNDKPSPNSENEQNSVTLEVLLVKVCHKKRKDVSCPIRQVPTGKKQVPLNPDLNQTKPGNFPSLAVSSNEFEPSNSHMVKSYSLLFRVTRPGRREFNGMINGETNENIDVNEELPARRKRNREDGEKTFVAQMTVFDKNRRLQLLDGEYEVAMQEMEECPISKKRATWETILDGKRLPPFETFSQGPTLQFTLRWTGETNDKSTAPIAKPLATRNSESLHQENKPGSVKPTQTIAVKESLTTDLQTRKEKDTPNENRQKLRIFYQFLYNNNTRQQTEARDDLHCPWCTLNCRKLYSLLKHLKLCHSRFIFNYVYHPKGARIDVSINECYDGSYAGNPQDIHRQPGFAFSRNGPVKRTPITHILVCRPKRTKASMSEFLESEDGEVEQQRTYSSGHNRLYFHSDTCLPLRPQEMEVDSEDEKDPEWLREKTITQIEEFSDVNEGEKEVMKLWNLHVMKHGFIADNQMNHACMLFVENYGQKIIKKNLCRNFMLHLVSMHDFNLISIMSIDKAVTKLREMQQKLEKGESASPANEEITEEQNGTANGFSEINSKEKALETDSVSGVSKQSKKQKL
T1 sequence (Q09028 whole entry partner): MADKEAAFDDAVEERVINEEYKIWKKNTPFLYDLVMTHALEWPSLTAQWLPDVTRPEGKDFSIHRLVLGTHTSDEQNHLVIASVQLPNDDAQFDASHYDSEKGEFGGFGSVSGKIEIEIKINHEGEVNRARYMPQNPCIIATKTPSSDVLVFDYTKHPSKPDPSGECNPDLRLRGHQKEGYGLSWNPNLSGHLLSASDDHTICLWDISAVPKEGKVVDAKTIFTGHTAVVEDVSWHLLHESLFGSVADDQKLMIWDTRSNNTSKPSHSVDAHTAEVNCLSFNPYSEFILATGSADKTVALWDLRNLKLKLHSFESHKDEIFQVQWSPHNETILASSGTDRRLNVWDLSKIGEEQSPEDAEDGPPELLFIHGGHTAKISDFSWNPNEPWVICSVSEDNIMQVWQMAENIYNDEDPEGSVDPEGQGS

CDKN2A locus (p16 protein immunoblot) (EZH2): activation of the CDKN2A locus
H3K27Me3 (EZH2): loss of H3K27Me3
activated RAS (EZH2): reduced activated RAS
SMILES: CCCc1cc(C)[nH]c(=O)c1CNC(=O)c1cc(-c2ccnc(N3CCN(C)CC3)c2)cc2c1cnn2C(C)C [GSK343]
cell proliferation (NSCs): reduced cell proliferation

SMILES: CC(C)C[C@@H](C=O)NC(=O)[C@H](CC(C)C)NC(=O)[C@H](CC(C)C)NC(=O)OCc1ccccc1 [MG132] (Cbz-Leu-Leu-Leu-aldehyde)
protein expression of total MYC (MYC): restored

SMILES: Nc1ncn([C@H]2C[C@H](O)[C@@H](CO)O2)c(=O)n1 [decitabine, 5-aza-2′-deoxycytidine]
expression of RASAL1 protein (RASAL1): restored
